Several values for one entry are separate records, joined by “and”; a condition that tells them apart may be missing. Equal entries are not always repeated. Inconclusive results and toxic doses are left out.
Tested on: B6C3F1 mice, ip Sarcoma M5076, median survival T/C
Experiment: NCI In Vivo Anticancer Drug Screen. Data for tumor model Sarcoma M5076 (intraperitoneal) in B6C3F1 mice
Details: endpoint: median survival time, higher = longer survival
Procedure, shortened: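 Survival measured in treated (T) and vehicle control (C) mice with transplantable tumour; result given as T divided by C.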

[1] = dose: 12.5 mg/kg/injection, schedule: Q04DX004 (ip), vehicle: saline with Tween-80
[2] = dose: 25.0 mg/kg/injection, schedule: Q04DX004 (ip), vehicle: saline with Tween-80
[3] = dose: 25.0 mg/kg/injection, schedule: Q04DX004 (ip), vehicle: Klucel (hydroxypropylcellulose) (HPC)
[4] = dose: 50.0 mg/kg/injection, schedule: Q04DX004 (ip), vehicle: Klucel (hydroxypropylcellulose) (HPC)
[5] = dose: 100.0 mg/kg/injection, schedule: Q04DX004 (ip), vehicle: Klucel (hydroxypropylcellulose) (HPC)
[6] = dose: 200.0 mg/kg/injection, schedule: Q04DX004 (ip), vehicle: Klucel (hydroxypropylcellulose) (HPC)
[7] = dose: 3.12 mg/kg/injection, schedule: Q04DX004 (ip), vehicle: saline
[8] = dose: 6.25 mg/kg/injection, schedule: Q04DX004 (ip), vehicle: saline
[9] = dose: 12.5 mg/kg/injection, schedule: Q04DX004 (ip), vehicle: saline
[10] = dose: 25.0 mg/kg/injection, schedule: Q04DX004 (ip), vehicle: saline
[11] = dose: 50.0 mg/kg/injection, schedule: Q04DX004 (ip), vehicle: saline

CC1Oc2cc3c(-c4c(O)cc(O)c5c(O)c6c(cc45)OC(C)C(C)C6=O)c(O)cc(O)c3c(O)c2C(=O)C1C (stereo not given)
T/C (dose: 0.62 mg/kg/injection, schedule: Q01DX009 (ip), vehicle: suspension in saline): 102 % of control
T/C (dose: 1.25 mg/kg/injection, schedule: Q01DX009 (ip), vehicle: suspension in saline): 109 % of control
T/C (dose: 1.25 mg/kg/injection, schedule: Q04DX004 (ip), vehicle: suspension in saline): 151 % of control
T/C (dose: 1.8 mg/kg/injection, schedule: Q04DX004 (ip), vehicle: suspension in saline): 97 % of control and 115 % of control
T/C (dose: 3.0 mg/kg/injection, schedule: Q04DX004 (ip), vehicle: suspension in saline): 107 % of control and 114 % of control
T/C (dose: 8.33 mg/kg/injection, schedule: Q04DX004 (ip), vehicle: suspension in saline): 123 % of control

C/C=C/C=C\C=C/C(O)CC(OP(=O)(O)O)C(C)(O)/C=C/C1CC=CC(=O)O1 (stereo not given)
T/C (dose: 0.75 mg/kg/injection, schedule: Q04DX004 (ip), vehicle: Klucel (hydroxypropylcellulose) (HPC)): 104 % of control
T/C (dose: 1.5 mg/kg/injection, schedule: Q04DX004 (ip), vehicle: Klucel (hydroxypropylcellulose) (HPC)): 112 % of control
T/C (dose: 1.5 mg/kg/injection, schedule: Q04DX004 (ip), vehicle: water): 106 % of control
T/C (dose: 3.0 mg/kg/injection, schedule: Q04DX004 (ip), vehicle: Klucel (hydroxypropylcellulose) (HPC)): 111 % of control
T/C (dose: 3.0 mg/kg/injection, schedule: Q04DX004 (ip), vehicle: water): 108 % of control and 111 % of control
T/C (dose: 6.0 mg/kg/injection, schedule: Q04DX004 (ip), vehicle: Klucel (hydroxypropylcellulose) (HPC)): 112 % of control
T/C (dose: 6.0 mg/kg/injection, schedule: Q04DX004 (ip), vehicle: water): 108 % of control and 113 % of control
T/C (dose: 12.0 mg/kg/injection, schedule: Q04DX004 (ip), vehicle: water): 108 % of control
T/C (dose: 24.0 mg/kg/injection, schedule: Q04DX004 (ip), vehicle: water): 112 % of control

Clc1ccccc1C(Cc1c(Cl)cccc1Cl)Cn1ccnc1 (stereo not given)
T/C [1]: 100 % of control
T/C [2]: 101 % of control
T/C (dose: 50.0 mg/kg/injection, schedule: Q04DX004 (ip), vehicle: saline with Tween-80): 101 % of control
T/C (dose: 100.0 mg/kg/injection, schedule: Q04DX004 (ip), vehicle: saline with Tween-80): 93 % of control

O=c1c(O)c(-c2cc(O)c(O)c(O)c2)oc2cc(O)cc(O)c12
T/C (dose: 75.0 mg/kg/injection, schedule: Q04DX004 (ip), vehicle: saline with Tween-80): 111 % of control
T/C (dose: 150.0 mg/kg/injection, schedule: Q04DX004 (ip), vehicle: saline with Tween-80): 111 % of control
T/C (dose: 300.0 mg/kg/injection, schedule: Q04DX004 (ip), vehicle: saline with Tween-80): 101 % of control
T/C (dose: 600.0 mg/kg/injection, schedule: Q04DX004 (ip), vehicle: saline with Tween-80): 99 % of control

CC1CCC(NC(=O)N(CCCl)N=O)CC1 (stereo not given)
T/C (dose: 3.0 mg/kg/injection, schedule: Q01DX004 (ip), vehicle: Klucel (hydroxypropylcellulose) (HPC)): 108 % of control
T/C (dose: 6.0 mg/kg/injection, schedule: Q01DX004 (ip), vehicle: Klucel (hydroxypropylcellulose) (HPC)): 104 % of control
T/C (dose: 12.0 mg/kg/injection, schedule: Q01DX004 (ip), vehicle: Klucel (hydroxypropylcellulose) (HPC)): 108 % of control
T/C (dose: 48.0 mg/kg/injection, schedule: Q04DX004 (ip), vehicle: Klucel (hydroxypropylcellulose) (HPC)): 254 % of control

O=C1CN2CCN3CC(=O)NC(=O)[C@H]3[C@@H]2C(=O)N1
T/C (dose: 31.0 mg/kg/injection, schedule: Q04DX004 (ip), vehicle: saline with Tween-80): 93 % of control
T/C (dose: 62.0 mg/kg/injection, schedule: Q04DX004 (ip), vehicle: saline with Tween-80): 94 % of control
T/C (dose: 125.0 mg/kg/injection, schedule: Q04DX004 (ip), vehicle: saline with Tween-80): 93 % of control
T/C (dose: 250.0 mg/kg/injection, schedule: Q04DX004 (ip), vehicle: saline with Tween-80): 100 % of control
T/C (dose: 500.0 mg/kg/injection, schedule: Q04DX004 (ip), vehicle: saline with Tween-80): 98 % of control

COc1cc2c(cc1OC)[C@@H]1C(=O)c3ccc4c(c3O[C@@H]1CO2)C[C@H](C(C)C)O4
T/C (dose: 12.5 mg/kg/injection, schedule: Q04DX004 (ip), vehicle: Klucel (hydroxypropylcellulose) (HPC)): 104 % of control
T/C [3]: 104 % of control
T/C [4]: 104 % of control

COC(=O)NC1C(C)OC(OC2C/C=C(/C)C3C=CC4C(OC5CC(OC6CC(O)C(OC7CC(O)C(OC)C(C)O7)C(C)O6)C(O)C(C)O5)C(C)CC(C)C4C3(C)/C(O)=C3\C(=O)OC4(CC(C)C(CO)=CC4/C=C\2C)C3=O)CC1(C)[N+](=O)[O-] (stereo not given)
T/C [3]: 105 % of control
T/C [4]: 100 % of control
T/C [5]: 87 % of control
T/C [6]: 100 % of control

CC[C@](O)(C(=O)O)c1cc2n(c(=O)c1CO)Cc1cc3ccccc3nc1-2
T/C [7]: 115 % of control
T/C [8]: 115 % of control and 123 % of control
T/C [9]: 119 % of control
T/C [10]: 123 % of control
T/C [11]: 114 % of control

COC(=O)Nc1cccc(-c2nc3ccc(NC(=O)OC)cc3c(=O)n2-c2ccccc2)c1
T/C (dose: 133.0 mg/kg/injection, schedule: Q04DX004 (ip), vehicle: Klucel (hydroxypropylcellulose) (HPC)): 167 % of control

O=C1c2cccc(NCCCNCCO)c2C(=O)c2cccc(NCCCNCCO)c21
T/C (dose: 12.5 mg/kg/injection, schedule: Q04DX004 (ip), vehicle: acid diluted with saline): 116 % of control
T/C (dose: 25.0 mg/kg/injection, schedule: Q04DX004 (ip), vehicle: acid diluted with saline): 99 % of control
T/C (dose: 50.0 mg/kg/injection, schedule: Q04DX004 (ip), vehicle: acid diluted with saline): 91 % of control

CCOc1ccc(-c2nc3ccc(-c4nc5ccc(N6CCN(C)CC6)cc5[nH]4)cc3[nH]2)cc1
T/C [7]: 100 % of control
T/C [8]: 88 % of control
T/C [9]: 100 % of control
T/C [10]: 92 % of control

CC(=O)C(Cl)C(=O)c1c(C)[nH]n(-c2ccccc2)c1=O (stereo not given)
T/C [4]: 99 % of control
T/C [5]: 113 % of control
T/C [6]: 92 % of control

CNC(=S)SC1=NS(=O)(=O)c2ccccc2N1
T/C [4]: 105 % of control
T/C (dose: 62.0 mg/kg/injection, schedule: Q04DX004 (ip), vehicle: Klucel (hydroxypropylcellulose) (HPC)): 102 % of control
T/C [5]: 103 % of control
T/C (dose: 104.0 mg/kg/injection, schedule: Q04DX004 (ip), vehicle: Klucel (hydroxypropylcellulose) (HPC)): 103 % of control
T/C (dose: 173.0 mg/kg/injection, schedule: Q04DX004 (ip), vehicle: Klucel (hydroxypropylcellulose) (HPC)): 113 % of control
T/C [6]: 96 % of control
T/C (dose: 400.0 mg/kg/injection, schedule: Q04DX004 (ip), vehicle: Klucel (hydroxypropylcellulose) (HPC)): 109 % of control

CCN(CC)C(=Nc1ccc(Cl)c(Cl)c1)SC(NC=O)=C(Cl)Cl
T/C (dose: 50.0 mg/kg/injection, schedule: Q04DX004 (ip), vehicle: Klucel + Tween-80): 104 % of control
T/C (dose: 100.0 mg/kg/injection, schedule: Q04DX004 (ip), vehicle: Klucel + Tween-80): 97 % of control
T/C (dose: 200.0 mg/kg/injection, schedule: Q04DX004 (ip), vehicle: Klucel + Tween-80): 91 % of control

CC(NNC(=S)N(C)C1CCCCC1)c1cc2ccccc2cn1 (stereo not given)
T/C [11]: 102 % of control
T/C (dose: 100.0 mg/kg/injection, schedule: Q04DX004 (ip), vehicle: saline): 105 % of control
T/C (dose: 200.0 mg/kg/injection, schedule: Q04DX004 (ip), vehicle: saline): 111 % of control

c1nnc(NCNc2nncs2)s1
T/C (dose: 25.0 mg/kg/injection, schedule: Q04DX004 (ip), vehicle: suspension in saline): 113 % of control
T/C (dose: 50.0 mg/kg/injection, schedule: Q04DX004 (ip), vehicle: suspension in saline): 122 % of control
T/C (dose: 144.0 mg/kg/injection, schedule: Q04DX004 (ip), vehicle: suspension in saline): 154 % of control
T/C (dose: 200.0 mg/kg/injection, schedule: Q04DX004 (ip), vehicle: suspension in saline): 123 % of control
T/C (dose: 240.0 mg/kg/injection, schedule: Q04DX004 (ip), vehicle: suspension in saline): 164 % of control
T/C (dose: 400.0 mg/kg/injection, schedule: Q04DX004 (ip), vehicle: suspension in saline): 168 % of control and 177 % of control

O=C(O)CCCc1ccc(N(CCCl)CCCl)cc1
T/C (dose: 2.0 mg/kg/injection, schedule: Q04DX004 (ip), vehicle: saline with Tween-80): 108 % of control
T/C (dose: 4.0 mg/kg/injection, schedule: Q04DX004 (ip), vehicle: saline with Tween-80): 114 % of control and 123 % of control
T/C (dose: 8.0 mg/kg/injection, schedule: Q04DX004 (ip), vehicle: saline with Tween-80): 118 % of control

C=C(C)[C@H]1Cc2c(ccc3c2O[C@@H]2COc4cc(OC)c(OC)cc4[C@@H]2C3=O)O1
T/C (dose: 6.25 mg/kg/injection, schedule: Q04DX004 (ip), vehicle: saline with Tween-80): 98 % of control
T/C [1]: 95 % of control
T/C [2]: 97 % of control
